Like-named read-outs stand apart in the source and are kept apart here.
Tests used:
[1] = target: T1, His-GST-TVMV-hRIPK1(1-324) (Homo sapiens, UniProt Q13546); experiment: RIPK1 HTRF Binding Assay
T1 construct: The coding region of human RIPK1(1-324) flanked by NdeI site at 5′ end; made in house; host or cells: Spodoptera frugiperda (Sf9) insect cells, baculovirus
T1 sequence (Q13546 1-324): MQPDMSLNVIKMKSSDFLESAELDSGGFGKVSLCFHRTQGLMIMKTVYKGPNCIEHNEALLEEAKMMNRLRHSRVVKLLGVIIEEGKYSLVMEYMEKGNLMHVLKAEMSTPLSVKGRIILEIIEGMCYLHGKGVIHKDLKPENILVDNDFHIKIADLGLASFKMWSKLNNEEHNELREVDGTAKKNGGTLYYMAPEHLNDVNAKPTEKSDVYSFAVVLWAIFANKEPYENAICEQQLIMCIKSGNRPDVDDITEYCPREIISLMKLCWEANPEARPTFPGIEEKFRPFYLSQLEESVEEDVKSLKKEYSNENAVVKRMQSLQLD

[2] = tested on: MLKL phosphorylation in HT29-L23 human colorectal adenocarcinoma cells; experiment: MLKL Phosphorylation High-Content Assay; format: cell-based; settings: Homo sapiens
Procedure, shortened: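 Cells incubated six hours at 37° C., then phospho-MLKL (S358) immunostained overnight at 4° C. and imaged by high-content microscopy. Phosphorylation quantified as mean circ-ring average intensity ratio; IC50 and Ymax from 4-parameter logistic fits.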

[3] = x marks IC50 class <20 nM, read-out: RIPK1 HTRF binding <20 nM
[4] = x marks IC50 class 20-200 nM, read-out: pMLKL cell activity 20-200 nM
[5] = x marks IC50 class 20-200 nM, read-out: RIPK1 HTRF binding 20-200 nM
[6] = x marks IC50 class <20 nM, read-out: pMLKL cell activity <20 nM
[7] = x marks IC50 class >200 nM, read-out: pMLKL cell activity >200 nM

Structure (SMILES) | IC50 [1, 3] [nM] | IC50 [2, 4] [nM] | IC50 [1, 5] [nM] | IC50 [2, 6] [nM] | IC50 [2, 7] [nM]
[2H]C([2H])([2H])[C@@H](NC(=O)c1cc(-c2ccn3nc(N)nc3c2)c(C)nc1C)c1cc(C(F)(F)F)ccc1F [Example 289, (R)-5-(2-amino-[1,2,4]triazolo[1,5-a]pyridin-7-yl)-N-(l-(2-fluoro-5-(trifluoromethyl)phenyl)ethyl-2,2,2-d3)-2,6-dimethylnicotinamide] | < 20 | 20 to 200 |  |  | 
COc1ncc(-c2ccn3nc(N)nc3c2)cc1C(=O)NC(C)c1cccc(OC(F)(F)F)c1 (single isomer, unassigned) [Example 36-1, 5-{2-Amino-[1,2,4]triazolo[1,5-a]pyridin-7-yl}-2-methoxy-N-{1-[3-(trifluoromethoxy)phenyl]ethyl}pyridine-3-carboxamide] |  | 20 to 200 | 20 to 200 |  | 
Cc1ncc(-c2ccn3nc(N)nc3c2)cc1C(=O)NCc1cc(F)cc(F)c1OC1CC(C)OC(C)C1 (stereo not drawn) [Example 315, 5-(2-amino-[1,2,4]triazolo[1,5-a]pyridin-7-yl)-N-(2-((2,6-dimethyltetrahydro-2H-pyran-4-yl)oxy)-3,5-difluorobenzyl)-2-methylnicotinamide] |  | 20 to 200 | 20 to 200 |  | 
Cc1nc(C)c(-c2ccn3nc(N)nc3c2)cc1C(=O)NCc1cc(F)cc(F)c1OC1CCOC(C)C1 (stereo not drawn) [Example 296, 5-(2-amino-[1,2,4]triazolo[1,5-a]pyridin-7-yl)-N-(3,5-difluoro-2-((2-methyltetrahydro-2H-pyran-4-yl)oxy)benzyl)-2,6-dimethylnicotinamide] |  | 20 to 200 | 20 to 200 |  | 
CCOc1ncc(-c2ccn3nc(N)nc3c2)cc1C(=O)NCc1ccccc1Oc1ccccc1 [Example 277, 5-{2-amino-[1,2,4]triazolo[1,5-a]pyridin-7-yl}-2-ethoxy-N-[(2-phenoxyphenyl)methyl]pyridine-3-carboxamide] | < 20 |  |  | < 20 | 
Cc1ncc(-c2ccn3nc(N)nc3c2)cc1C(=O)NCc1ccccc1OCC1CCC1 [Example 248, 5-{2-amino-[1,2,4]triazolo[1,5-a]pyridin-7-yl}-N-{[2-(cyclobutylmethoxy)phenyl]methyl}-2-methylpyridine-3-carboxamide] | < 20 |  |  | < 20 | 
COc1ncc(-c2ccn3nc(N)nc3c2)cc1C(=O)NCc1cc(F)cc(F)c1OC1COC1 [Example 364, 5-(2-amino-[1,2,4]triazolo[1,5-a]pyridin-7-yl)-N-(3,5-difluoro-2-(oxetan-3-yloxy)benzyl)-2-methoxynicotinamide] | < 20 | 20 to 200 |  |  | 
Cc1ncc(-c2ccn3nc(N)nc3c2)cc1NC(=O)Cc1cc(OC(F)(F)F)ccc1F [Example 420, N-(5-(2-amino-[1,2,4]triazolo[1,5-a]pyridin-7-yl)-2-methylpyridin-3-yl)-2-(2-fluoro-5-(trifluoromethoxy)phenyl)acetamide] | < 20 | 20 to 200 |  |  | 
Nc1nc2cc(-c3cnc(C4CC4)c(C(=O)NCc4cccc(OC(F)(F)F)c4)c3)ccn2n1 [Example 19, 5-{2-Amino-[1,2,4]triazolo[1,5-a]pyridin-7-yl}-2-cyclopropyl-N-{[3-(trifluoromethoxy)phenyl]methyl}pyridine-3-carboxamide] |  | 20 to 200 | 20 to 200 |  | 
Cc1ncc(-c2ccn3nc(N)nc3c2)cc1C(=O)NCc1cc(OC(F)(F)F)ccc1F [Example 229, 5-{2-amino-[1,2,4]triazolo[1,5-a]pyridin-7-yl}-N-{[2-fluoro-5-(trifluoromethoxy)phenyl]methyl}-2-methylpyridine-3-carboxamide] | < 20 | 20 to 200 |  |  | 
[2H]C([2H])([2H])[C@@H](NC(=O)c1cc(-c2ccn3nc(N)nc3c2)cnc1OC)c1cccc(OC(F)(F)F)c1 [Example 346, (R)-5-(2-amino-[1,2,4]triazolo[1,5-a]pyridin-7-yl)-2-methoxy-N-(1-(3-(trifluoromethoxy)phenyl)ethyl-2,2,2-d3)nicotinamide] | < 20 | 20 to 200 |  |  | 
CC(CCNC(=O)c1cc(-c2ccn3nc(N)nc3c2)cnc1N(C)C)c1ccccc1 (stereo not drawn) [Example 64, 5-{2-Amino-[1,2,4]triazolo[1,5-a]pyridin-7-yl}-2-(dimethylamino)-N-(3-phenylbutyl)pyridine-3-carboxamide] |  | 20 to 200 | 20 to 200 |  | 
Cc1nc(C)c(-c2ccn3nc(N)nc3c2)cc1C(=O)NCc1cc(C(F)(F)F)ccc1F [Example 192, 5-{2-amino-[1,2,4]triazolo[1,5-a]pyridin-7-yl}-N-{[2-fluoro-5-(trifluoromethyl)phenyl]methyl}-2,6-dimethylpyridine-3-carboxamide] | < 20 |  |  | < 20 | 
COc1ncc(-c2ccn3nc(N)nc3c2)cc1C(=O)NCc1ccccc1S(=O)(=O)C(C)C [Example 104, 5-{2-amino-[1,2,4]triazolo[1,5-a]pyridin-7-yl}-2-methoxy-N-{[2-(propane-2-sulfonyl)phenyl]methyl}pyridine-3-carboxamide] | < 20 |  |  |  | > 200
Cc1ncc(-c2ccn3nc(N)nc3c2)cc1C(=O)NCc1ncccc1OCC1CCCC1 [Example 12, 5-{2-amino-[1,2,4]triazolo[1,5-a]pyridin-7-yl}-N-{[3-(cyclopentylmethoxy)pyridin-2-yl]methyl}-2-methylpyridine-3-carboxamide] | < 20 | 20 to 200 |  |  | 
COc1ncc(-c2ccn3nc(N)nc3c2)cc1C(=O)NCc1c(F)cccc1OC1CCCC1 [Example 52, 5-{2-Amino-[1,2,4]triazolo[1,5-a]pyridin-7-yl}-N-{[2-(cyclopentyloxy)-6-fluorophenyl]methyl}-2-methoxypyridine-3-carboxamide] | < 20 |  |  | < 20 | 
[2H]C([2H])([2H])c1ncc(-c2ccn3nc(N)nc3c2)cc1C(=O)NCc1cc(OC(F)(F)F)ccc1F [Example 96, 5-{2-amino-[1,2,4]triazolo[1,5-a]pyridin-7-yl}-N-{[2-fluoro-5-(trifluoromethoxy)phenyl]methyl}-2-(deutero)methylpyridine-3-carboxamide] | < 20 | 20 to 200 |  |  | 
Cc1ncc(-c2ccn3nc(N)nc3c2)cc1C(=O)NCc1ccc(F)cc1OCC1CC1 [Example 24, 5-{2-Amino-[1,2,4]triazolo[1,5-a]pyridin-7-yl}-N-{[2-(cyclopropylmethoxy)-4-fluorophenyl]methyl}-2-methylpyridine-3-carboxamide] |  |  | 20 to 200 |  | > 200
COc1nc(C)c(-c2ccn3nc(N)nc3c2)cc1C(=O)NCc1ccccc1OCC(C)C [Example 327, 5-(2-amino-[1,2,4]triazolo[1,5-a]pyridin-7-yl)-N-(2-isobutoxybenzyl)-2-methoxy-6-methylnicotinamide] | < 20 |  |  | < 20 | 
Nc1nc2cc(-c3cnc(Cl)c(C(=O)NCc4cc(OC(F)(F)F)ccc4F)c3)ccn2n1 [Example 166, 5-{2-amino-[1,2,4]triazolo[1,5-a]pyridin-7-y1}-2-chloro-N-{[2-fluoro-5-(trifluoromethoxy)phenyl]methyl}pyridine-3-carboxamide] |  |  | 20 to 200 |  | > 200
COc1nnc(-c2ccn3nc(N)nc3c2)cc1C(=O)NCCC(C)c1ccccc1 (stereo not drawn) [Example 387, 6-(2-amino-[1,2,4]triazolo[1,5-a]pyridin-7-yl)-3-methoxy-N-(3-phenylbutyl)pyridazine-4-carboxamide] |  |  | 20 to 200 |  | > 200
COc1ncc(-c2ccn3nc(N)nc3c2)cc1C(=O)NCc1ncccc1OCC1CCCC1 [Example 124, 5-{2-amino-[1,2,4]triazolo[1,5-a]pyridin-7-yl}-N-{[3-(cyclopentylmethoxy)pyridin-2-yl]methyl}-2-methoxypyridine-3-carboxamide] | < 20 | 20 to 200 |  |  | 
CCCOc1ncc(-c2ccn3nc(N)nc3c2)cc1C(=O)NCc1ccccc1Sc1ccccc1CO [Example 63] | < 20 | 20 to 200 |  |  | 
Cc1ncc(-c2ccn3nc(N)nc3c2)cc1C(=O)NCc1ccccc1OCC(C)C [Example 305, 5-(2-amino-[1,2,4]triazolo[1,5-a]pyridin-7-yl)-N-(2-isobutoxybenzyl)-2-methylnicotinamide] |  | 20 to 200 | 20 to 200 |  | 
Cc1nc(C)c(-c2ccn3nc(N)nc3c2)cc1C(=O)NCc1cccc(OCC2CC2)c1 [Example 176, 5-{2-amino-[1,2,4]triazolo[1,5-a]pyridin-7-yl}-N-{[3-(cyclopropylmethoxy)phenyl]methyl]-2,6-dimethylpyridine-3-carboxamide] |  |  | 20 to 200 |  | > 200
COc1ncc(-c2ccn3nc(N)nc3c2)cc1C(=O)NCc1ccc(F)cc1OC1CCCC1 [Example 51, 5-{2-Amino-[1,2,4]triazolo[1,5-a]pyridin-7-yl}-N-{[2-(cyclopentyloxy)-4-fluorophenyl]methyl}-2-methoxypyridine-3-carboxamide] | < 20 | 20 to 200 |  |  | 
Nc1nc2cc(-c3cc(C(=O)NCc4ccccc4OC(F)(F)F)cnc3Cl)ccn2n1 [Example 372, 5-(2-amino-[1,2,4]triazolo[1,5-a]pyridin-7-yl)-6-chloro-N-(2-(trifluoromethoxy)benzyl)nicotinamide] | < 20 |  |  |  | > 200

— patent US10913738B2 (BRISTOL-MYERS SQUIBB COMPANY, priority 2017, dated 2021)
